Like-named read-outs stand apart in the source and are kept apart here.
Legend:
[1] = test system: DNMT1 knock-out MV4-11 cells; assay: Target engagement: cytotoxicity in DNMT1 knock-out MV4-11 cell line; format: cell-based; details: DNMT1 knock-out (siRNA) MV4-11, concentration-dependent treatment
Source text: This confirms that Aza-T-dCyd has potent pharmacological effects through DNMT1 (FIG. 18).

[2] = Pharmacokinetic evaluation in Rat; format: in vivo; details: for AUC(0-inf) / AUC(0-t) / Cmax / half-life / Tmax: in vivo, Rat; for half-life: read-out: T½ (converted)
Description: Aza-T-dCyd was administered orally and intravenously at various concentrations to Mice, Rats and Dogs to determine the PK profile.

OVCAR-3 (ovarian) = OVCAR-3 (ovarian) xenograft model; format: in vivo; details: NSG mouse, (4) cycles
Source text: The efficacy of Aza-T-dCyd was confirmed by tumor growth curves after administration of Aza-T-dCyd in various solid cancer xenograft models. […]

DNMT1 = DNMT1 (Homo sapiens, UniProt P26358); assay: DNMT1 expression in HL-60 xenograft tumor samples; format: in vivo, mice; parameters: tumor samples were collected on day 11 to determine the expression of DNMT1, DNMT3A, and DNMT3B; from tissue; host or cells: HL-60 xenograft tumour samples (mouse host); details: 2 mg/kg NTX-301 or 0.75 mg/kg Decitabine intraperitoneally, day 11
DNMT1, sequence (P26358 whole entry): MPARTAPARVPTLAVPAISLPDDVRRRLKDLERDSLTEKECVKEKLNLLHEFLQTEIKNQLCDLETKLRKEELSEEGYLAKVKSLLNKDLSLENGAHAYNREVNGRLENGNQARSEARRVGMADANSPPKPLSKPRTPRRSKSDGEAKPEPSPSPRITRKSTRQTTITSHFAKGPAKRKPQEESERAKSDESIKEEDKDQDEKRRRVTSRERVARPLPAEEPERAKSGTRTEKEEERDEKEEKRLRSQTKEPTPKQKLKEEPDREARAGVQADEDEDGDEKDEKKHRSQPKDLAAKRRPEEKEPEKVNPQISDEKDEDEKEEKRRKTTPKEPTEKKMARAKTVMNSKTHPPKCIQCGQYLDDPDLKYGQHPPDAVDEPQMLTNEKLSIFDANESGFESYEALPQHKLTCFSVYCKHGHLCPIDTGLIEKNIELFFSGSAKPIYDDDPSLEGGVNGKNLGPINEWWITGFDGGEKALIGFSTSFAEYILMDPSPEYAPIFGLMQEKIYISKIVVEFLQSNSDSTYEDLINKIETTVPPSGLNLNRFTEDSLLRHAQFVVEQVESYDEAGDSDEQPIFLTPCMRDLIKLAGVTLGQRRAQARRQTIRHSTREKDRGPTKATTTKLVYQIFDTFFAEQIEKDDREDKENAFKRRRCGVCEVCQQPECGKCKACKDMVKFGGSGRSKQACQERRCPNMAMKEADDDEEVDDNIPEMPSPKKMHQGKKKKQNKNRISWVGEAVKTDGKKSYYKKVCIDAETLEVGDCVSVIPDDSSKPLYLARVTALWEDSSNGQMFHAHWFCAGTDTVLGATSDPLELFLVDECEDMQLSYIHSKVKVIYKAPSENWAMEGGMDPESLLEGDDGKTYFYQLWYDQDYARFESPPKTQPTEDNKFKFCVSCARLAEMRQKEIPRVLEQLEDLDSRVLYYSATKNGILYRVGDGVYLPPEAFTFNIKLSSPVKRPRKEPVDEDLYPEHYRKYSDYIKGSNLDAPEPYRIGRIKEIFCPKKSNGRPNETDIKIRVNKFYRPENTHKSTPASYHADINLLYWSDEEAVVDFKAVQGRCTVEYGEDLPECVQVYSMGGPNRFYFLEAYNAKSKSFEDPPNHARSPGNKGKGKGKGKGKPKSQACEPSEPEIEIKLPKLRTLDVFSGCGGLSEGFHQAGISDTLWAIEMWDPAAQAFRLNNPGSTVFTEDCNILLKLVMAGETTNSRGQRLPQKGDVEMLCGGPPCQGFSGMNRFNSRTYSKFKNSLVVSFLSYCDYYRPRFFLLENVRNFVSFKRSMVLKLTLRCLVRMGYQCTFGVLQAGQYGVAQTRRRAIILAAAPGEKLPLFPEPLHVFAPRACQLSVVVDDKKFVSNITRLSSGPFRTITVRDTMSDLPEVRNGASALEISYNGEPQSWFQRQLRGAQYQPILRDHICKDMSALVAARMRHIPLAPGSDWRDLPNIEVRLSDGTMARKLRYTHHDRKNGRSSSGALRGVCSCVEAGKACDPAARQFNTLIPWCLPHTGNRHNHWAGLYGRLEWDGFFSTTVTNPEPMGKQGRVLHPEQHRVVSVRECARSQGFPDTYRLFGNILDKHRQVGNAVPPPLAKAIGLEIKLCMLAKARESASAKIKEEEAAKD
Description: As the efficacy of DNMT1 inhibitors correlates with their selective profile for targeting DNMT1 and the de novo methyltransferases DNMT3A and DNMT3B, we confirmed the expression of DNMT1, DNMT3A, and DNMT3B in the Aza-T-dCyd and Decitabine treated groups in this xenograft model (FIG. 27).
In the HL-60 xenograft mice model, 2 mg/kg of NTX-301 (Aza-T-dCyd) or 0.75 mg/kg of Decitabine were administered intraperitoneally, and then tumor samples were collected on day 11 to determine the expression of DNMT1, DNMT3A, and DNMT3B. […] On the other hand, the expression levels of DNMT3A and DNMT3B were different in the Aza-T-dCyd and Decitabine treatment groups.

Nc1ncn([C@H]2CC(O)[C@@H](CO)S2)c(=O)n1 (some centres unmarked) [Aza-T-dCyd, 4′-thio-5-aza-2′-deoxycytidine]
cytotoxicity in DNMT1 knock-out cell line [1]: decrease in cytotoxicity | AUC(0-inf) ([2]; IV 1 mg/kg): 1900 ng·h/mL | AUC(0-t) ([2]; IV 1 mg/kg): 1330 ng·h/mL | Cmax ([2]; IV 1 mg/kg): 444 ng/mL | half-life ([2]; IV 1 mg/kg): 5.01 h | AUC(0-inf) ([2]; PO 0.5 mg/kg): 303 ng·h/mL | AUC(0-t) ([2]; PO 0.5 mg/kg): 190 ng·h/mL | Cmax ([2]; PO 0.5 mg/kg): 33.8 ng/mL | Tmax ([2]; PO 0.5 mg/kg): 2 h | half-life ([2]; PO 0.5 mg/kg): 5.24 h | AUC(0-inf) ([2]; PO 1 mg/kg): 790 ng·h/mL | AUC(0-t) ([2]; PO 1 mg/kg): 459 ng·h/mL | Cmax ([2]; PO 1 mg/kg): 81.9 ng/mL | Tmax ([2]; PO 1 mg/kg): 1.17 h | half-life ([2]; PO 1 mg/kg): 6.3 h | AUC(0-inf) ([2]; PO 3 mg/kg): 2800 ng·h/mL | AUC(0-t) ([2]; PO 3 mg/kg): 2780 ng·h/mL | Cmax ([2]; PO 3 mg/kg): 488 ng/mL | Tmax ([2]; PO 3 mg/kg): 0.83 h | half-life ([2]; PO 3 mg/kg): 3.45 h | AUC(0-inf) ([2]; PO 10 mg/kg): 9240 ng·h/mL | AUC(0-t) ([2]; PO 10 mg/kg): 9200 ng·h/mL | Cmax ([2]; PO 10 mg/kg): 1320 ng/mL | Tmax ([2]; PO 10 mg/kg): 2 h | half-life ([2]; PO 10 mg/kg): 2.95 h | oral bioavailability ([2]; rats): orally bioavailable | Optimal T/C (%) (test/control) (OVCAR-3 (ovarian); 0.5 mg/kg): 40% | Optimal T/C (%) (test/control) (OVCAR-3 (ovarian); 1 mg/kg): 4% | DNMT1 expression in tumor samples (DNMT1): significantly reduced

Reference: patent publication US12708630B2, “Combined therapy of 4′-thio-5-aza-2′-deoxycytidine and Venetoclax” (PINOTBIO, INC., priority 2021, dated 2026)
